Data published in patent US11793772B2, “Pharmaceutical composition comprising THA as active ingredient for treating breast cancer” (KOREA UNITED PHARM. INC., priority 2016, dated 2023).

Tests used:
[1] = system: SKBR3 cells; test: Cell proliferation inhibitory activity per human breast cancer cell line, SKBR3; type: cell-based; conditions: as treatment amount increased, FIG. 10A
Experimental: (§1) To measure cell proliferation, SKBR3, T47D, HCC1428, MDA-MD-453, MDA-MB-231, MDA-MB-468, HCC38, HCC70, and HCC1937 cells were plated in respective 96-well dishes (5×10^3 cells/well). For cell stabilization, these cells were incubated in a cell incubator at 36.5° C. for 24 hours, and then treated with a drug, and the number of live cells was measured using an IncuCyte ZOOM live cell analysis system (Essen Bioscience, Ann Arbor, Mich., USA) at intervals of 4 hours.

[2] = system: T47D cells; test: Cell proliferation inhibitory activity per human breast cancer cell line, T47D; type: cell-based; conditions: as treatment amount increased, FIG. 10A
Experimental: as §1

[3] = system: HCC38 cells; test: Cell proliferation inhibitory activity per human breast cancer cell line, HCC38; type: cell-based; conditions: as treatment amount increased, FIG. 10C
Experimental: as §1

[4] = system: HCC1937 cells; test: Cell proliferation inhibitory activity per human breast cancer cell line, HCC1937; type: cell-based; conditions: as treatment amount increased, FIG. 10C
Experimental: as §1

[5] = system: HCC1428 cells; test: Cell proliferation inhibitory activity per human breast cancer cell line, HCC1428; type: cell-based; conditions: as treatment amount increased, FIG. 10A
Experimental: as §1

[6] = system: MDA-MB-468 cells; test: Cell proliferation inhibitory activity per human breast cancer cell line, MDA-MB-468; type: cell-based; conditions: as treatment amount increased, FIG. 10B
Experimental: as §1

[7] = system: HCC70 cells; test: Cell proliferation inhibitory activity per human breast cancer cell line, HCC70; type: cell-based; conditions: as treatment amount increased, FIG. 10C
Experimental: as §1

[8] = system: MDA-MD-453 cells; test: Cell proliferation inhibitory activity per human breast cancer cell line, MDA-MD-453; type: cell-based; conditions: as treatment amount increased, FIG. 10B
Experimental: as §1

[9] = system: MDA-MB-231 cells; test: Cell proliferation inhibitory activity per human breast cancer cell line, MDA-MB-231; type: cell-based; conditions: as treatment amount increased, FIG. 10B
Experimental: as §1

[10] = system: TAMR-MCF-7 cells; test: Tamoxifen-resistant breast cancer cell xenograft mouse model; type: in vivo, BALB/c-nu mice
Experimental: In all experiments, 6-week-old female BALB/c-nu mice were raised for 1 week at the Research Center for Animal Experiments in the College of Pharmacy of the Seoul National University at a humidity of 55±5% and a temperature of 22±2° C. and under controlled ventilation conditions and adapted to the environment, and then used in the experiments according to randomized block design, and light/dark cycles were adjusted to 12 hours.
Animal experiments were carried out in accordance with the Experimental Animals Ethics Guidelines. TAMR-MCF-7 cells (5×10^6 cells) were transdermally injected into the left mammary gland of nude mice, and tumor sizes were measured using a caliper twice a week. Tumor volume was calculated by the following formula: Tumor volume=length×width^2. Five weeks after cell transplantation, the mice were euthanized using carbon dioxide gas and the tumors were extracted and weighed.
THA was intraperitoneally administered to a tamoxifen-resistant breast cancer cell-transplanted mouse model every day for 2 weeks at a dose of 6 mg/kg based on a dose known to be effective for bile secretion in the liver. Tumor sizes and weights were measured twice a week during the administration period, and after administration was completed, tumors were extracted, and then the extracted tumor tissues were weighed. PCNA, which is a cell proliferative index, and TUNEL, which is an apoptotic index, were evaluated in the tumor tissues by immunohistochemistry staining, and some tissues were pulverized to quantify cdc25c, which is a downstream signal of Plk1, as a Plk1 activity index, and an increase or decrease in cdc25c expression was confirmed by western blotting.
In addition, THA was administered to a tamoxifen-resistant breast cancer cell-transplanted mouse model at a dose of 10 mg/kg, 30 mg/kg, or 100 mg/kg using an oral zonde needle every day for 2 weeks.

[11] = system: human breast cancer cell line panel; test: THA reactivity according to Plk1 expression differences per human breast cancer cell line; type: cell-based; conditions: 11 breast cancer cell lines classified as low, medium, high Plk1 expression; FIGS. 11A and 11B
[12] = system: TAMR-MCF-7 cells; test: Real-time cell proliferation assay (IncuCyte ZOOM), TAMR-MCF-7; type: cell-based, human; conditions: TAMR-MCF-7 tamoxifen-resistant breast cancer cells; FIG. 2, FIG. 3
Experimental: (§2) An MCF-7 cell line was sub-cultured in high glucose Dulbeccos Modified Eagle's Medium (DMEM) containing 10% fetal bovine serum, 50 U/ml of penicillin, and 50 μg/ml of streptomycin in an incubator supplied with 5% CO2 at 37° C. to be used for experiments. A TAMR-MCF-7 cell line was cultured in high glucose Dulbeccos Modified Eagle's Medium (DMEM) containing 10% charcoal-stripped fetal bovine serum, 3 μM 4-OH-tamoxifen (Sigma-Aldrich, Mo., USA), 50 U/ml of penicillin, and 50 μg/ml of streptomycin.
(§3) To measure cell proliferation, cells were plated in a 96-well dish (5×10^3 cells/well). After drug treatment, the number of live cells was measured using an IncuCyte ZOOM live cell analysis system (Essen Bioscience, Ann Arbor, Mich., USA) at intervals of 4 hours.
(§4) Tamoxifen-resistant breast cancer cells (TAMR-MCF-7) and/or control breast cancer cells (MCF-7) were treated with 2,4,6-trihydroxyacetophenone (THA), and then it was confirmed whether Plk1 activity and cell proliferation were inhibited, using the method of Example 1.

[13] = system: Polo-like kinase 1 (Plk1); test: Western blotting and immunocytochemistry of Plk1 downstream signals (cdc25c, cyclin B1) in tamoxifen-resistant breast cancer cells; type: cell-based, human
Experimental: Sodium dodecyl sulfate-polyacrylamide gel electrophoresis (SDS-PAGE) was performed using a gel electrophoresis apparatus (Mighty Small SE250, Hoefer Scientific Instruments, San Francisco). A cell lysate fraction was diluted in a sample dilution buffer [63 mM Tris (pH 6.8), 10% glycerol, 2% SDS, 0.0013% bromophenol blue, and 5% β-mercaptoethanol], and then electrophoresis was performed thereon in an electrode buffer (15 g of Tris, 72 g of […], and 5 g of SDS included in a 1 L solution) using a 8% to 12% gel. The electrophoresed gel was used to transfer proteins to a nitrocellulose membrane at 190 mAmps for 70 minutes in a transfer buffer (25 mM Tris, 192 mM […], and 20% v/v methanol (pH 8.3)) using a transfer electrophoresis apparatus. The nitrocellulose membrane was reacted with a primary antibody, and then reacted with horseradish peroxidase-conjugated goat anti-rabbit IgG and horseradish peroxidase-conjugated goat anti-mouse IgG as secondary antibodies for 6 hours, followed by color development using an ECL detection system (ECL chemiluminescence system, Amersham, Gaithersberg, Mass.).
To measure fluorescence expression, cells were plated in a 6-well dish (5×10^5 cells/well). Fluorescence was conjugated to cdc25c and cyclin B1 antibodies using SiteClick™ Qdot antibody labeling kits (Thermo Scientific, IL, USA), and fluorescence-conjugated cdc25c and cyclin B1 antibodies were treated in a 6-well dish, and then expression was observed through a fluorescence microscope.
as §4

[14] = system: MCF-7 cells; test: Real-time cell proliferation assay (IncuCyte ZOOM), MCF-7; type: cell-based, human; conditions: MCF-7 normal (control) breast cancer cells; FIG. 2
Experimental: as §2, §3, §4

[15] = system: TAMR-MCF-7 cells; test: Cell cycle analysis by flow cytometry; type: cell-based, human; conditions: FIG. 4, FIG. 5
Experimental: To measure the cell cycle distribution, cells were plated in a 100 mm dish (5×10^5 cells/well). The cells were fixed with PBS at 4° C., refrigerated in 70% EtOH at 4° C., and cultured for 24 hours. After removing the 70% EtOH, the cells were stained with propidium iodide (PI)/Triton X-100/DNAse-free RNAse A at 37° C. for 15 minutes. 20,000 cells per experimental group were analyzed using an FACS-Calibur™ (BD Biosciences, CA, USA) machine.

[16] = system: TAMR-MCF-7 cells; test: Real-time apoptosis analysis with caspase-3/7 fluorescent substrate; type: cell-based, human; conditions: caspase-3/7 selective fluorescent substrate, FIG. 6
Experimental: To measure apoptosis, cells were plated in a 96-well dish (5×10^3 cells/well). The cells were pre-treated with the IncuCyte ZOOM™ 96-well Caspase-3/7 apoptosis assay reagent for 3 hours and treated with a drug, and then the degree of fluorescence expression was measured using an IncuCyte ZOOM™ live cell analysis system (Essen Bioscience, Ann Arbor, Mich., USA) at intervals of 4 hours.

[17] = intraperitoneal 6 mg/kg, immunohistochemistry, FIGS. 7D and 7E
[18] = tamoxifen-resistant breast cancer cells, western blotting and immunocytochemistry, FIG. 1

Compound | cell proliferation [1] | cell proliferation [2] | cell proliferation [3] | cell proliferation [4] | cell proliferation [5] | cell proliferation [6] | cell proliferation [7] | cell proliferation [8] | cell proliferation [9] | other results
CC[C@@H]1C(=O)N(C)c2cnc(Nc3ccc(C(=O)NC4CCN(C)CC4)cc3OC)nc2N1C1CCCC1 [BI-2536, reference compound] | cell proliferation was inhibited | cell proliferation was inhibited | cell proliferation was inhibited | cell proliferation was inhibited | cell proliferation was inhibited | cell proliferation was inhibited | cell proliferation was inhibited | cell proliferation was inhibited | cell proliferation was inhibited | –
CC(=O)c1c(O)cc(O)cc1O [THA, 2,4,6-trihydroxyacetophenone] | cell proliferation was inhibited | cell proliferation was inhibited | cell proliferation was inhibited | cell proliferation was inhibited | cell proliferation was inhibited | cell proliferation was inhibited | cell proliferation was inhibited | cell proliferation was inhibited | cell proliferation was inhibited | tumor size ([10]; intraperitoneal 6 mg/kg every day for 2 weeks, compared to control, FIG. 7A): significantly reduced; tumor weight ([10]; intraperitoneal 6 mg/kg every day for 2 weeks, compared to control, FIG. 7C): significantly reduced; body weight of each mouse ([10]; intraperitoneal 6 mg/kg every day for 2 weeks, FIG. 7B): maintained at a similar level; PCNA, cell proliferative index, in tumor tissue [10, 17]: reduced; TUNEL, apoptotic index, in tumor tissue [10, 17]: significantly increased; cdc25c expression in tumor tissue (Plk1 activity index) ([10]; intraperitoneal 6 mg/kg, western blotting, FIG. 7F): significantly inhibited; tumor size ([10]; oral 10 mg/kg, 30 mg/kg, or 100 mg/kg every day for 2 weeks, compared to control, FIG. 7G): significantly reduced; body weight of each mouse ([10]; oral 10 mg/kg, 30 mg/kg, or 100 mg/kg every day for 2 weeks, FIG. 7I): maintained at a similar level; selectivity according to Plk1 expression (correlation between Plk1 expression and IC50 of each cell line) [11]: selectively acts on breast cancer cells with high Plk1 expression; inhibition of cell proliferation [12]: more strongly inhibited cell proliferation; Plk1 inhibitory effect ([13]; concluded from cdc25c decrease and cyclin B1 increase): had a Plk1 inhibitory effect; compensatory cyclin B1 expression [13, 18]: increased compensatory cyclin B1 expression; expression of cdc25c, downstream signal of Plk1 [13, 18]: reduced the expression of cdc25c; inhibition of cell proliferation [14]: inhibited cell proliferation; cell cycle inhibition [15]: S phase arrest; apoptotic index [16]: significantly increased
